Results on 2 compounds are retold here after publication doi:10.1101/2024.08.13.607785v1 (biorxiv, 2024).

Assay in all cases: biochemical
What all share (parameters): species or system human cell line lysate

Experiment [1] deals with Phosphoinositide 3-kinase regulatory subunit 4 ; PIK3R4 ; Q99570 (Homo sapiens, UniProt Q99570).
The target in experiment [2] is Mitogen-activated protein kinase 11 ; MAPK11 ; Q15759 (Homo sapiens, UniProt Q15759).
The target of experiment [3] is Ribosomal protein S6 kinase alpha-3 ; RPS6KA3 ; P51812 (Homo sapiens, UniProt P51812).
Experiment [4] addresses Tyrosine-protein kinase FRK ; FRK ; P42685 (Homo sapiens, UniProt P42685).
In experiment [5] the target is Dual specificity protein kinase CLK3 ; CLK3 ; P49761 (Homo sapiens, UniProt P49761).
Experiment [6] addresses Receptor-type tyrosine-protein kinase FLT3 ; FLT3 ; P36888 (Homo sapiens, UniProt P36888).
For experiment [7], the target named is Phosphatidylinositol 3-kinase catalytic subunit type 3 ; PIK3C3 ; Q8NEB9 (Homo sapiens, UniProt Q8NEB9).
Chain of Phosphatidylinositol 3-kinase catalytic subunit type 3 ; PIK3C3 ; Q8NEB9 (Q8NEB9 whole entry, one chain of several): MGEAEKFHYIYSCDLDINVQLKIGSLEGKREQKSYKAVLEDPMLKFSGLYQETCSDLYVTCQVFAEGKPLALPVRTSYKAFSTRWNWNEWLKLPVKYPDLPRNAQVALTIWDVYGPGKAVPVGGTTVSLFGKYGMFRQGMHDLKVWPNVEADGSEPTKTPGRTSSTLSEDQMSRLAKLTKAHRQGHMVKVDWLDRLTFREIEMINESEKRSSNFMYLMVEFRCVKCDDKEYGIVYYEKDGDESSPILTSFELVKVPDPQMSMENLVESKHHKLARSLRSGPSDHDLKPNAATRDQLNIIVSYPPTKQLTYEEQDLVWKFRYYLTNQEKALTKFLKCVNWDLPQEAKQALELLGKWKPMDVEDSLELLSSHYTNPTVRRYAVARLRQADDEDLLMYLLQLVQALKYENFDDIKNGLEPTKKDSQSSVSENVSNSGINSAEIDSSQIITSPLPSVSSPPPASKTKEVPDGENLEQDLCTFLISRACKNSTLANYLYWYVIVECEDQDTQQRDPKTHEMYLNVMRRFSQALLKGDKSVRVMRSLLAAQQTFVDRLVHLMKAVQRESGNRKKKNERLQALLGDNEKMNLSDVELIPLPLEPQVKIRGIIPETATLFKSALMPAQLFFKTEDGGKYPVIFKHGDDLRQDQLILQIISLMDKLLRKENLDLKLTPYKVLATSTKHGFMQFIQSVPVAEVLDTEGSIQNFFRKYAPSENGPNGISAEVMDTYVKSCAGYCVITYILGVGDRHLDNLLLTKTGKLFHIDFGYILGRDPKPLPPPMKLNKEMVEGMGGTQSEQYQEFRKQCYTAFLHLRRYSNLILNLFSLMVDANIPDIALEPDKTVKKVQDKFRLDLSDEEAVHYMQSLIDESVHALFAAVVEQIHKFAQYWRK
Experiment [8] deals with T1, Serine/threonine-protein kinase NLK ; NLK ; Q9UBE8 (Homo sapiens, UniProt Q9UBE8).
T1 sequence (Q9UBE8 1-527): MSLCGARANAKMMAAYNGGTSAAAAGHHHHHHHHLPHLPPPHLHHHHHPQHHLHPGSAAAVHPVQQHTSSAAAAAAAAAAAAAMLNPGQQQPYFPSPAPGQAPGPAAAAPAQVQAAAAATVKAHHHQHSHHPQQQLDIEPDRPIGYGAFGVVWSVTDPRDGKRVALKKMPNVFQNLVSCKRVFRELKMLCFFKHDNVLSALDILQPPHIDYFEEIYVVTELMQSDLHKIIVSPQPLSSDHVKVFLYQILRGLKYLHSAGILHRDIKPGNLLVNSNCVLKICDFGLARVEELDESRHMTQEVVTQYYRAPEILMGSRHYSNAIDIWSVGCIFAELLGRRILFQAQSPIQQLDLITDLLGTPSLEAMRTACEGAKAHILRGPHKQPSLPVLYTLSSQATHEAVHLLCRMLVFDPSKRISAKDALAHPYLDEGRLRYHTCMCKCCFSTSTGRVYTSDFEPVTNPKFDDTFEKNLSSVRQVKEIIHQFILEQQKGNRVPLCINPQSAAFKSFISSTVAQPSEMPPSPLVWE

Experiment [9] deals with Tyrosine-protein kinase Fgr ; FGR ; P09769 (Homo sapiens, UniProt P09769).
Chain of Tyrosine-protein kinase Fgr ; FGR ; P09769 (P09769 whole entry): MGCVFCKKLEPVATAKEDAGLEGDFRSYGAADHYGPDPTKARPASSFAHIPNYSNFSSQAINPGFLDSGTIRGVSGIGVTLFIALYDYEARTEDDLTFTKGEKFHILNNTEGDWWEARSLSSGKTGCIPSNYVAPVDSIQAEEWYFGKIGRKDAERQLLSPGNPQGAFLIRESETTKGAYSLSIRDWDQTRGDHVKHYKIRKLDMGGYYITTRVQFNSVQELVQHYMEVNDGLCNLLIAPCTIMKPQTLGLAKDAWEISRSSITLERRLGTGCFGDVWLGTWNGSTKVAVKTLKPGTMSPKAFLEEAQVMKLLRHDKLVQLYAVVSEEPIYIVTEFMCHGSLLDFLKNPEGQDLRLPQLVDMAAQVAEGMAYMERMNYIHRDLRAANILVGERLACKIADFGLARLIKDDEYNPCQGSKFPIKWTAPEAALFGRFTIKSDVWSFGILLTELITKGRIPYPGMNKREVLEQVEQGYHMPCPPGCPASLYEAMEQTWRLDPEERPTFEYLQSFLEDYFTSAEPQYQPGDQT
Experiment [10] deals with Serine/threonine-protein kinase TAO1 ; TAOK1 ; Q7L7X3 (Homo sapiens, UniProt Q7L7X3).
In experiment [11] the target is Calcium/calmodulin-dependent protein kinase type II subunit delta ; CAMK2D ; Q13557 (Homo sapiens, UniProt Q13557).
Experiment [12] concerns the target Serine/threonine-protein kinase ATR ; ATR ; Q13535 (Homo sapiens, UniProt Q13535).
The target in experiment [13] is Isoform 3 of Mitogen-activated protein kinase 8 ; MAPK8 ; P45983-3 (Homo sapiens, UniProt P45983).
Experiment [14] deals with Serine/threonine-protein kinase 10 ; STK10 ; O94804 (Homo sapiens, UniProt O94804).
In experiment [15] the target is Serine/threonine-protein kinase/endoribonuclease IRE1 ; ERN1 ; O75460 (Homo sapiens, UniProt O75460).
Chain of Serine/threonine-protein kinase/endoribonuclease IRE1 ; ERN1 ; O75460 (O75460 whole entry, one chain of several): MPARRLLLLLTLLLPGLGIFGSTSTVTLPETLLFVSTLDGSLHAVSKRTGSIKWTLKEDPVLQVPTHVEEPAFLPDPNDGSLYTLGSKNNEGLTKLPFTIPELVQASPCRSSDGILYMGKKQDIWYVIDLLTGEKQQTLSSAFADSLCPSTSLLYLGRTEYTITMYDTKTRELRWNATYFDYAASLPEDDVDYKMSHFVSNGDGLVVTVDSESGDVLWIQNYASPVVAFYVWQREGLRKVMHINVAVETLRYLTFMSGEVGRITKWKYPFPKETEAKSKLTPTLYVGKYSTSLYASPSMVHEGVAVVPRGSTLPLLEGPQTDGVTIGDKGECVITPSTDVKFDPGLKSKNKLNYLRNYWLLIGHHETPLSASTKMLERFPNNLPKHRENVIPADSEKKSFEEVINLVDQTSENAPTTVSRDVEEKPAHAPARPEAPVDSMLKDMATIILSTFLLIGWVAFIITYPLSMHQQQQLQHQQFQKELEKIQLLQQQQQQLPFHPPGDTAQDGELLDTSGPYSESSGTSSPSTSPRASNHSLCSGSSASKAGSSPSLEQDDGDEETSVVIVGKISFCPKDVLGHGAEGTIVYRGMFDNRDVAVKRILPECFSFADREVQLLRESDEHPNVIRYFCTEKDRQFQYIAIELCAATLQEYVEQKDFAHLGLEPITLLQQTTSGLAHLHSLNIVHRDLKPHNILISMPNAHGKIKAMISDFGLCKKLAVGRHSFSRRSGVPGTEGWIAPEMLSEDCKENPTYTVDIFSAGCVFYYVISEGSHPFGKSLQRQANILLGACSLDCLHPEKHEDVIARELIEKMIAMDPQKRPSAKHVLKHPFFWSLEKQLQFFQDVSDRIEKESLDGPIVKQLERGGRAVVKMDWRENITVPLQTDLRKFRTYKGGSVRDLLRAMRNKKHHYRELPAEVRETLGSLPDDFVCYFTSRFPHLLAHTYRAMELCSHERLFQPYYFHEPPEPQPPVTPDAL
The target in experiment [16] is Serine/threonine-protein kinase PLK4 ; PLK4 ; O00444 (Homo sapiens, UniProt O00444).
Chain of Serine/threonine-protein kinase PLK4 ; PLK4 ; O00444 (O00444 whole entry, one chain of several): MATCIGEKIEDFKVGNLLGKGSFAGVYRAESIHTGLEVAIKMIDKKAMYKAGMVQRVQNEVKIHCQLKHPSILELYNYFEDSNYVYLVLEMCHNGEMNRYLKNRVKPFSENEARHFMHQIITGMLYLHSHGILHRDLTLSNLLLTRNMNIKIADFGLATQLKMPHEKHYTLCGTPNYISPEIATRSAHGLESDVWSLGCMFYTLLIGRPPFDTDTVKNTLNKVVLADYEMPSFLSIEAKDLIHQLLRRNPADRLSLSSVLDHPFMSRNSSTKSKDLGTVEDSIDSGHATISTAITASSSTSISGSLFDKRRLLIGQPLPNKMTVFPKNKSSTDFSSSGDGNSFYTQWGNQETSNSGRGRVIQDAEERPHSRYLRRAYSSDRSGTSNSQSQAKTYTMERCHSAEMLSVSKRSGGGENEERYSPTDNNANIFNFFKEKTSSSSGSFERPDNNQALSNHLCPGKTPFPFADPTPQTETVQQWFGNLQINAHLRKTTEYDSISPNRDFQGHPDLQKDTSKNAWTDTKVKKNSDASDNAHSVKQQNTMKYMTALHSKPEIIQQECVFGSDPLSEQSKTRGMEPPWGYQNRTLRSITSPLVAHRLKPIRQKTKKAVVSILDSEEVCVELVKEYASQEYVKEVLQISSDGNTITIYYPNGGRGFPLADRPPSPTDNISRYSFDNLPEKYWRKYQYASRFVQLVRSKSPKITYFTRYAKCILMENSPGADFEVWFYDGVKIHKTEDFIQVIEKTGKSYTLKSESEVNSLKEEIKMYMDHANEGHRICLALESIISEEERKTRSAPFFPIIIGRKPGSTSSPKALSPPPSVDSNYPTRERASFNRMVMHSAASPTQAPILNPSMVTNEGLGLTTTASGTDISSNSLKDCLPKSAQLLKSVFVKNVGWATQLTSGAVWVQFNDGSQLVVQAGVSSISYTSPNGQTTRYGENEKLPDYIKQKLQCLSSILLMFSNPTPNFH
Experiment [17] concerns the target Ephrin type-A receptor 4 ; EPHA4 ; P54764 (Homo sapiens, UniProt P54764).
In experiment [18] the target is Dual specificity protein kinase CLK1 ; CLK1 ; P49759 (Homo sapiens, UniProt P49759).
Experiment [19] addresses AP2-associated protein kinase 1 ; AAK1 ; Q2M2I8 (Homo sapiens, UniProt Q2M2I8).
The mark [20] stands for this setting: read-out: BAY-1251152 (10 µM) / %Intensity relative to DMSO.
[21] abbreviates: read-out: BAY-1143572 (10 µM) / %Intensity relative to DMSO.

Like-named read-outs stand apart in the source and are kept apart here.

Chain of Mitogen-activated protein kinase 11 ; MAPK11 ; Q15759 (Q15759 whole entry): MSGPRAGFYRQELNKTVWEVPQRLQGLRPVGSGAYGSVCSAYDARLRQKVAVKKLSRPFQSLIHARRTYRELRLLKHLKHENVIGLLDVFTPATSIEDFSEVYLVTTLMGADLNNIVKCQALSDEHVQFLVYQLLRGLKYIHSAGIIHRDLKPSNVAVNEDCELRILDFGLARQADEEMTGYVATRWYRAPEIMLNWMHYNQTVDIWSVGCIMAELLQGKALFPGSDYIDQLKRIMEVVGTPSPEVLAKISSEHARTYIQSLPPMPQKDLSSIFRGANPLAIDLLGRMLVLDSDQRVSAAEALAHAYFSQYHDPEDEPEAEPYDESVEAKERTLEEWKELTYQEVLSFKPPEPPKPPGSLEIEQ
Chain of Receptor-type tyrosine-protein kinase FLT3 ; FLT3 ; P36888 (P36888 whole entry): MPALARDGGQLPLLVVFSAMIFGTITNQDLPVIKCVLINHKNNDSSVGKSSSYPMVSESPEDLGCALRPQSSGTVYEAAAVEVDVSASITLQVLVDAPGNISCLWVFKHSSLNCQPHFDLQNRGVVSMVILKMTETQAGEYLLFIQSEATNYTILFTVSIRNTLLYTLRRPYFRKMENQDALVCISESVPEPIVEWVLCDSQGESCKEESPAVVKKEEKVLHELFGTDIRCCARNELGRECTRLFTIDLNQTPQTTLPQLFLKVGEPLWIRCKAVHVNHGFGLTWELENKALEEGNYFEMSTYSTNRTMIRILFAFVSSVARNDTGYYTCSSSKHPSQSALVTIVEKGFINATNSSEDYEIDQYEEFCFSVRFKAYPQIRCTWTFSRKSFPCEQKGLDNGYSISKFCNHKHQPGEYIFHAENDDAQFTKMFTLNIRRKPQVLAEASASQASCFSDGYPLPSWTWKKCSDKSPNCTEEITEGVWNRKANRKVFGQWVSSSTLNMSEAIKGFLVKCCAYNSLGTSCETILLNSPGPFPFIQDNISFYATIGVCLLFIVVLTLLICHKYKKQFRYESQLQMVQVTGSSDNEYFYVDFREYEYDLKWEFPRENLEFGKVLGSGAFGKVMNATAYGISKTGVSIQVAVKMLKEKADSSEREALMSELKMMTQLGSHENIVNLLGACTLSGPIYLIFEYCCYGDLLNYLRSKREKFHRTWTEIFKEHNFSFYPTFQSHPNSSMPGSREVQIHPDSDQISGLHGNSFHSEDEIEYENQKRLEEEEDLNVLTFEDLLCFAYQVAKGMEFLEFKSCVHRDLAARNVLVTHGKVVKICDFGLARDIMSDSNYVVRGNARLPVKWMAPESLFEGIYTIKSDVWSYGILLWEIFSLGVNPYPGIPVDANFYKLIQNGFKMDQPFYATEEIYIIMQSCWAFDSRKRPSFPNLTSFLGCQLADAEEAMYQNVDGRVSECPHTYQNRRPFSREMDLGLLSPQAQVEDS

For `COc1cc(F)ccc1-c1cc(Nc2cc(CS(C)(=N)=O)ccn2)ncc1F` (centres unmarked) [BAY-1251152], the remaining activity at 10 µM in [1] (setting [20]) amounted to 107%; in [2] (setting [20]), 107%; in experiment [3] (setting [20]), 107%; in experiment [4] (setting [20]), 123%; in [5] (setting [20]), 115%; in experiment [6] (setting [20]), 84.2%. Moreover, the remaining activity at 10 µM came to 124% in experiment [7] (setting [20]); 115% in experiment [8] (setting [20]); 97.1% in [9] (setting [20]); 88.3% in experiment [10] (setting [20]); 90.9% in experiment [11] (setting [20]); 70.1% in experiment [12] (setting [20]). Besides, the remaining activity at 10 µM came to 128% in [13] (setting [20]); 74.5% in experiment [14] (setting [20]); 131% in experiment [15] (setting [20]); 109% in [16] (setting [20]); 105% in experiment [17] (setting [20]); 104% in experiment [18] (setting [20]). In addition, in experiment [19] (setting [20]), the remaining activity at 10 µM came to 87.9%.
`COc1cc(F)ccc1-c1ncnc(Nc2cccc(C[S@](C)(=N)=O)c2)n1` [BAY-1143572]: the remaining activity at 10 µM in experiment [1] (setting [21]) amounted to 101%; in experiment [2] (setting [21]), 116%; in [3] (setting [21]) it was 115%; in experiment [4] (setting [21]) it was 125%; in experiment [5] (setting [21]), 113%; in experiment [6] (setting [21]), 70.5%. In addition, the remaining activity at 10 µM in experiment [7] (setting [21]) was found to be 119%; in [8] (setting [21]), 103%; in experiment [9] (setting [21]) it was 96.5%; in [10] (setting [21]), 114%; in experiment [11] (setting [21]) it was 94.4%; in [12] (setting [21]), 109%. The remaining activity at 10 µM stood at 141% in experiment [13] (setting [21]); 91.3% in experiment [14] (setting [21]); 133% in [15] (setting [21]); 104% in experiment [16] (setting [21]); 91.7% in experiment [17] (setting [21]); 116% in experiment [18] (setting [21]). Moreover, in experiment [19] (setting [21]), the remaining activity at 10 µM amounted to 80.2%.
